# Marks after values point to notes of the source that are not given here.
# Key:
# [1] = system: time-mated Wistar rats; assay: in vivo maternal and prenatal developmental toxicity screening study (OECD 414 principles); details: rat
# Description: The major differences to a full guideline study were the smaller sample size, using 9–10 instead of at least 16 pregnant rats, per test substance.
# The animals were paired by the breeder [time-mated Wistar rats, Crl: WI (Han), Charles River Laboratories, Sulzfeld, Germany], between 10 and 12 weeks of age, and supplied on the day of evidence of mating; this day is referred to as gestational day (GD) 0 and following day as GD 1. […] This strain has been extensively used, both in our laboratory and elsewhere, and is sensitive to reproductive toxicants. All rats were housed individually in Makrolon cages with Lignocel PS 14 fibers dust-free bedding and wooden enrichment blocks. The cages were kept in climate-controlled rooms at 20–24 °C with a relative humidity of 30–70 %, an air exchange rate of 15 times per hour and a 12-h light/dark cycle. Diet (Ground Kliba SA, Switzerland) and tap water were provided ad libitum. In-life data (mortality, clinical signs, body weights and food consumption) were recorded throughout the study, but presented only if relevant for the interpretation of prenatal developmental effects.
# The test compounds administered by gavage were administrated between 100 and 600 mg/kg bw/day using the vehicle 1 % carboxymethylcellulose in deionized water. The standard dose volume was 10 ml/kg bw.
# On GD 20, the surviving dams were anesthetized with isoflurane, killed by decapitation and examined macroscopically. For each dam, the uterus was opened and the number, distribution and classification of implantation sites (live fetus, early and late fetal resorptions, and dead fetus) were determined. The fetuses were removed, sexed and fetal body weight determined. Gross pathological examination of the fetuses, including assessment of abnormalities of the fetal membranes, placentas, amniotic fluid and umbilical cord, was performed. Subsequently, all fetuses were killed by injection of pentobarbital. […] The other half of the fetuses of each dam was fixed in Harrison’s fluid. […] A permanent structural change that is likely to affect adversely the survival or health was assessed as malformation. A change that also occurs in the fetuses of control animals and/or is unlikely to affect adversely the survival or health was assessed as variation. This includes delays in growth or morphogenesis that have otherwise followed a normal pattern of development.
# Maternal toxicity was classified as slight if body weight and/or carcass weight reduction is not above 10 %, moderate if body weight and/or carcass weight reduction is between 10 and 20 % and severe if body weight and/or carcass weight reduction is above 20 %. All the in vivo data are expressed as the affected fetuses/litter.
# [2] = system: ES-D3 cells; assay: ES-D3 cell differentiation assay (differentiation into contracting cardiomyocytes); assay type: cell-based, mouse; details: for Corrected BMCd50: BMCd50 divided by relative Papp value (BeWo model); for IC50: Mus musculus, Cardiomyocyte, 240 h, concentration for 50 % reduction in number of differentiated EBs, BMD modelling, day 10, read-out: BMCd50
# Protocol: The murine ES-D3 cell line was purchased from ATCC (Wesel, Germany). The cells were maintained in polystyrene cell culture flasks (Corning, The Netherlands) in Dulbecco’s modified Eagle’s medium (DMEM, Invitrogen, Breda, The Netherlands), supplemented with 20 % heat-inactivated fetal calf serum (Lonza, BioWhittaker, Verviers, Belgium), 50 U/ml penicillin with 50 μg/ml streptomycin (Invitrogen), 2 mM L-glutamine (Invitrogen), 0.1 mM β-mercaptoethanol (Sigma-Aldrich) and 1 % (v/v) nonessential amino acids (Invitrogen), at 37 °C and 5 % CO2 in a humidified atmosphere. Cells were kept undifferentiated with 1000 U/ml murine leukemia inhibiting factor (LIF) (Sigma-Aldrich) and subcultured every 2–3 days using nonenzymatic cell dissociation solution (Sigma-Aldrich) to detach the cells.
# Differentiation assays were carried out to detect the effect of test compounds on the differentiation of ES-D3 cells into contracting cardiomyocytes using culture medium in the absence of LIF. On day 1, droplets of 20 μl cell suspension (3.75 × 10^4 cells/ml) were placed as hanging drops, to which the test compounds 0594, 0595, 0596, 0599, 0600 and 0618 were added at concentrations ranging from 0.2 to 60 μM (final solvent concentration 0.2 % DMSO), on the inner side of the lid of a 96-well plate. Sterile lids of Eppendorf tubes were placed on the corner wells of the plates to prevent contact of the drops with the plate. The wells of the 96-well plate were filled with 250 μl phosphate buffered saline (PBS) (Invitrogen), and the plate was sealed with Micropore tape (3M, Neuss, Germany) to prevent evaporation of the hanging drops. Plates were incubated for 3 days at 37 °C and 5 % CO2 in a humidified atmosphere. In the drops, cells formed embryonic bodies (EBs), which were transferred to nontissue culture-treated Petri dishes (diameter 6 cm, Greiner) with 5 ml of medium with test compound. On day 5, the EBs were transferred to a 24-well plate (Corning) with 1 ml of medium with test compound, with one EB per well. On day 10, the number of wells containing contracting EBs was determined by visual inspection using a light microscope. Solvent control (0.2 % DMSO in culture medium) was included in each experiment. The solvent control was also used to assess the quality of the batch of ES-D3 cells used in each individual test (cells being randomly distributed over test groups and solvent control). Tests were accepted for further analysis if at least 21 of the 24 wells of the solvent control contained contracting cardiomyocytes. For each test compound, three independent assays were performed. The results were expressed as “fraction of total,” with 1.0 implying all EBs in one 24-well plate differentiated into contracting cardiomyocytes.
# Different dichotomous concentration–response models were fitted to the in vitro developmental toxicity data obtained from the ES-D3 cell differentiation assay to calculate benchmark concentrations (BMC) using Environmental Protection Agency benchmark dose (BMD) software version 2.4. For each test compound, the BMCd50, representing the concentration for a 50 % reduction in the number of differentiated EBs, was derived. Models included in the evaluation were the gamma, logistic, loglogistic, probit, logprobit, multistage, weibull and the quantal-linear model. […] The lowest BMCd50 value was chosen from the accepted models.
# To combine in vitro developmental toxicity data obtained from the ES-D3 cell differentiation assay with placental transfer data obtained from the BeWo transport model, a corrected BMCd50 value was calculated by dividing the BMCd50 values by the relative Papp values, as described in Li et al. ([2015]).
# [3] = gavage GD 6–19, 600 mg/kg, affected fetuses/litter
# [4] = gavage GD 6–19, 200 mg/kg, affected fetuses/litter
SMILES,"Early resorption (%) ([1]; gavage GD 6–19, 200 mg/kg)","Fetal weight (%) ([1]; gavage GD 6–19, 200 mg/kg)","Late resorption (%) ([1]; gavage GD 6–19, 200 mg/kg)","Maternal toxicity classification ([1]; gavage GD 6–19, 200 mg/kg)","Maternal toxicity findings ([1]; gavage GD 6–19, 200 mg/kg)","Placenta weight (%) ([1]; gavage GD 6–19, 200 mg/kg)","Postimplantation loss (%) ([1]; gavage GD 6–19, 200 mg/kg)","Total number of fetuses ([1]; gavage GD 6–19, 200 mg/kg)","Early resorption (%) ([1]; gavage GD 6–19, 600 mg/kg)","Fetal weight (%) ([1]; gavage GD 6–19, 600 mg/kg)","Late resorption (%) ([1]; gavage GD 6–19, 600 mg/kg)","Placenta weight (%) ([1]; gavage GD 6–19, 600 mg/kg)","Postimplantation loss (%) ([1]; gavage GD 6–19, 600 mg/kg)","Total number of fetuses ([1]; gavage GD 6–19, 600 mg/kg)",Corrected BMCd50 [2],IC50 [2],also measured
"OC(c1cccnc1)c1c(-c2ccc(F)cc2F)noc1-c1ccc(Cl)cc1F (centres unmarked) [compound 0594, [5-(4-Chloro-2-fluoro-phenyl)-3-(2,4-difluoro-phenyl)-isoxazol-4-yl]-pyridin-3-yl-methanol]",5.9%,107%,1.9%,No,No,110%,7.8%,99,14.1%,101%,0.8%,116%,14.9%,98,23.3 µM,6.9 µM,"Ranking (in vivo prenatal developmental toxicity potency) ([1]; female, Wistar Crl:WI(Han), in vivo): 4; Bent femur [1, 3]: Bent femur 12.5%"
"CC(c1nc(-c2ccc(C#N)cc2)cs1)C(O)(Cn1cncn1)c1ccc(F)cc1 (centres unmarked) [compound 0596, 4-{2-[2-(4-Fluoro-phenyl)-2-hydroxy-1-methyl-3-[1,2,4]triazol-1-yl-propyl]-thiazol-4-yl}-benzonitrile]",2.9%,108%,0.0%,No,NAD,127** %,2.9%,109,7.7%,105%,0.8%,133%,8.6%,102,18.1 µM,11.4 µM,"Misshapen basisphenoid [1, 4]: 30.6%; Misshapen cervical arch [1, 4]: 14.3%; Severely malformed skull bones [1, 4]: 5.3%; Maternal toxicity classification ([1]; gavage GD 6–19, 600 mg/kg): No; Maternal toxicity findings ([1]; gavage GD 6–19, 600 mg/kg): NAD; Malformation, Total (skeletal) [1, 3]: Total 100 %**; Misshapen basisphenoid [1, 3]: 13%; Misshapen cervical arch [1, 3]: 70.2%; Severely malformed skull bones [1, 3]: 82.8%; Ranking (in vivo prenatal developmental toxicity potency) ([1]; 1 = highest potential, 6 = lowest, among the six test compounds): 2"
